Reference: US10568873B1, “Safranal-sorafenib combination therapy for liver cancer” (United Arab Emirates University, priority 2019, dated 2020)

Assays:
Format in all cases: in vivo, male Wistar rats
[1] = tested on: DEN-induced hepatic neoplasia in rats; assay: Histology (H&E), area of neoplastic foci (AHF); settings: H&E sections; FIG. 5; P<0.05
Experimental: (§1) A modified version of the protocol described by DePeralta et al. (2016) and Schiffer et al. (2005) was used here to establish the hepatocarcinogenesis model.
(§2) On the first 15 weeks, the control PBS group was treated with 1×PBS, whereas the experimental groups were given an intraperitoneal injection (IP) of 50 mg/kg of diethylnitrosoamine (DEN, Sigma Aldrich), a widely used chemical for inducing cancer, once a week. DEN was diluted with 1×PBS. Following a one-week break (week 16), the next three weeks (weeks 17 to 19) of treatment commenced. All drugs were administrated by oral gavage. All doses were chosen according to literature (Alsaied et al., 2014; Karafakioğlu et al., 2017). For the HCC+sorafenib group, the drug (Carbosynth Limited) was administered at a dose of 10 mg/kg, five days a week. For the HCC+safranal group, the drug (Sigma Aldrich) was administered at a dose of 200 mg/kg, five days a week. For the HCC+safranal+sorafenib group, the drugs were administered at a dose of 200 mg/kg safranal+10 mg/kg sorafenib, five days a week. Both safranal and sorafenib were diluted with 1×PBS and drops of Tween 80. […] After 24-hours from last treatment, the rats were euthanized by mild diethyl ether and dissected in equal conditions. Blood and whole liver were collected. […]

[2] = tested on: DEN-induced hepatic neoplasia in rats; assay: Reticulin staining of liver sections; settings: reticulin-stained sections; FIG. 6
Experimental: as §1, §2

Cdk1, Cyclin B1, Cdc25B = assay: Western blot of cell cycle-related proteins in liver
Experimental: as §1
(§3) On the first 15 weeks, the control PBS group was treated with 1×PBS, whereas the experimental groups were given an intraperitoneal injection (IP) of 50 mg/kg of diethylnitrosoamine (DEN, Sigma Aldrich), a widely used chemical for inducing cancer, once a week. DEN was diluted with 1×PBS. Following a one-week break (week 16), the next three weeks (weeks 17 to 19) of treatment commenced. All drugs were administrated by oral gavage. All doses were chosen according to literature (Alsaied et al., 2014; Karafakioğlu et al., 2017). […]
(§4) One hundredth gm (10 mg) liver was homogenized using 200 μl RIPA buffer (Sigma Aldrich) mixed with 2 μl protease inhibitor and 2 μl phosphatase inhibitor (Sigma Aldrich), and centrifuged at 4° C., 15,000 rpm for 15 minutes. […] Protein concentration was measured by Pierce BCA Protein Assay Kit with Promega GloMax Discover. […] Band density and quantification was done using ImageJ (Amin et al., 2011). […]
(§5) Due to technical reasons, total protein was used in this study as the loading control instead of the other common markers like GAPDH, β-tubulin, and β-actin. […] Ten internal controls were used, and their expressions were determined using RT-PCR. […]

[3] = tested on: DEN-induced hepatic neoplasia in rats; assay: Serum ALT and AST biochemical analysis in DEN-induced HCC rats; settings: P<0.05, one-way ANOVA, Tukey
Experimental: as §1
as §2, with “All doses were chosen according to literature (Alsaied et al., 2014; Karafakioğlu et al., 2017).” left out, “conditions.” for “conditions. Blood and whole liver were collected.”
Alanine Transaminase (ALT), and Aspartate Aminotransferase (AST) assays were performed using commercial kits (Abcam), according to the protocol provided. ALT and AST activities were measured spectrophotometrically using Epoch by BioTek.

PCNA = assay: Western blot of proliferation-related protein PCNA in liver; settings: normalized to total protein, n=4, P<0.05, FIG. 7
Experimental: as §1, §3, §4, §5

[4] = tested on: Bcl-2, Bax, Pro-Caspase-9, Pro-Caspase-3, PARP; assay: Western blot of intrinsic apoptosis-related proteins in liver
Experimental: as §1
On the first 15 weeks, the control PBS group was treated with 1×PBS, whereas the experimental groups were given an intraperitoneal injection (IP) of 50 mg/kg of diethylnitrosoamine (DEN, Sigma Aldrich), a widely used chemical for inducing cancer, once a week. DEN was diluted with 1×PBS. Following a one-week break (week 16), the next three weeks (weeks 17 to 19) of treatment commenced. All drugs were administrated by oral gavage. All doses were chosen according to literature (Alsaied et al., 2014; Karafakioğlu et al., 2017). For the HCC+sorafenib group, the drug (Carbosynth Limited) was administered at a dose of 10 mg/kg, five days a week. For the HCC+safranal group, the drug (Sigma Aldrich) was administered at a dose of 200 mg/kg, five days a week. For the HCC+safranal+sorafenib group, the drugs were administered at a dose of 200 mg/kg safranal+10 mg/kg sorafenib, five days a week. Both safranal and sorafenib were diluted with 1×PBS and drops of Tween 80. […] After 24-hours from last treatment, the rats were euthanized by mild diethyl ether and dissected in equal conditions. Blood and whole liver were collected.
One hundredth gm (10 mg) liver was homogenized using 200 μl RIPA buffer (Sigma Aldrich) mixed with 2 μl protease inhibitor and 2 μl phosphatase inhibitor (Sigma Aldrich), and centrifuged at 4° C., 15,000 rpm for 15 minutes. Whole cell lysate was taken and stored at −80° C. Protein concentration was measured by Pierce BCA Protein Assay Kit with Promega GloMax Discover. A total of 35 μg of protein was loaded on a sodium dodecyl sulfate-polyacrylamide gel electrophoresis gel. […] Band density and quantification was done using ImageJ (Amin et al., 2011). […]
as §5

[5] = tested on: DEN-induced hepatic neoplasia in rats; assay: Liver gross examination and number of liver nodules
Experimental: as §1
On the first 15 weeks, the control PBS group was treated with 1×PBS, whereas the experimental groups were given an intraperitoneal injection (IP) of 50 mg/kg of diethylnitrosoamine (DEN, Sigma Aldrich), a widely used chemical for inducing cancer, once a week. DEN was diluted with 1×PBS. Following a one-week break (week 16), the next three weeks (weeks 17 to 19) of treatment commenced. All drugs were administrated by oral gavage. […] For the HCC+sorafenib group, the drug (Carbosynth Limited) was administered at a dose of 10 mg/kg, five days a week. For the HCC+safranal group, the drug (Sigma Aldrich) was administered at a dose of 200 mg/kg, five days a week. For the HCC+safranal+sorafenib group, the drugs were administered at a dose of 200 mg/kg safranal+10 mg/kg sorafenib, five days a week. Both safranal and sorafenib were diluted with 1×PBS and drops of Tween 80. […] After 24-hours from last treatment, the rats were euthanized by mild diethyl ether and dissected in equal conditions. Blood and whole liver were collected.

CC1=C(C=O)C(C)(C)CC=C1 [safranal, 2,6,6-trimethyl-1,3-cyclohexadiene-1-carboxaldehyde]
area of neoplastic foci / restoration of normal liver architecture [1]: seems to enhance (P<0.05) the restoration of the normal architecture of the liver | reticular fibers' breakage and morphology comparing to HCC group [2]: reduced reticular fibers' breakage and restored their morphology | Cdk1, cyclin B1, Cdc25B decrease versus sorafenib alone (Cdk1, Cyclin B1, Cdc25B; FIG. 9): showed a greater decrease than treatment with sorafenib alone | Cdk1, cyclin B1, Cdc25B levels comparing to HCC animals (Cdk1, Cyclin B1, Cdc25B; P<0.05, FIG. 8, FIG. 9): significantly decreased their levels | ALT levels as compared to HCC group [3]: significantly (P<0.05) decreased ALT levels | PCNA expression (PCNA): significantly downregulated PCNA | expression of the anti-apoptotic protein Bcl-2 compared to HCC groups ([4]; FIG. 10, FIG. 11): significantly (P<0.05) decreased | expression of the pro-apoptotic protein Bax compared to HCC groups ([4]; FIG. 10, FIG. 11): significantly (P<0.05) increased | expression of pro-caspases-9 & 3 and whole PARP compared to HCC group ([4]; P<0.05, FIG. 12): significantly decreased | lesions comparing to treatment with sorafenib alone ([5]; FIG. 3): dramatically decreased lesions | number of liver nodules / lesions comparing to HCC animals ([5]; week 20, FIG. 2, FIG. 3): reduced lesions
